Laboratory results from patent publication US20250009783A1, “SULFONATED HYALURONIC ACID COMPOUND, PREPARATION METHOD THEREFOR AND APPLICATION THEREOF” (UNIVERSITY OF MACAU, priority 2021, published 2025).

Test system: CAGA-TGF-β activity reporter cells
Test: Test using TGF-β activity reporter cell (luciferase test)
Type: cell-based
Settings: added alone: TGF-β 50 ng/ml, pro-TGF-β1 200 ng/ml, overnight, FIG. 6
Method: Method: CAGA-TGF-β activity reporter cells were plated (12-well plate) until the confluence reached 65%. Samples and reagents were added to different wells, respectively. The grouping and concentration were as follows. Group 1:2 ml of TGF-β (50 ng/ml); Group 2:2 ml of pro-TGF-β1 (200 ng/ml); Group 3:2 ml of LLC (200 ng/ml)+S-HA-9 (20 ug/ml); Group 4:2 ml of LLC (200 ng/ml)+PBS (1×); Group 5:2 ml of LLC (200 ng/ml)+S-HA-PBA-1 (20 ug/ml), the cells were stimulated overnight, the samples were collected, and cell lysate was obtained for luciferase test.

TGF-β: transforming growth factor-β, control group 1 of the reporter cell test (50 ng/ml)
production of active TGF-β (reporter control groups): stimulated the production of active TGF-β

proTGF-β: pro-TGF-β1, control group 2 of the reporter cell test (200 ng/ml)
production of active TGF-β (reporter control groups): stimulated the production of a very small amount of active TGF-β
